{"source": "patent US6117889A", "about": "“7-Azabicyclo-[2.2.1]-heptane and -heptene derivatives as analgesics and anti-inflammatory agents” (priority 1996, dated 2000)", "key": {"[1]": {"tested_on": "acetylcholine nicotinic receptor", "experiment": "nicotinic receptor binding, [3H]-NMCI radioligand, rat cortex (Table 5)", "method": "7-aza-bicyclo[2.2.1]-heptanes and -heptenes were evaluated for their ability to bind to the acetylcholine nicotinic receptor using a standard binding assay, e.g. X. Zhang and A. Nordberg, Arch. Pharmacol., 348, 28 (1993); R. E. Middleton and J. B. Cohen, Biochemistry, 30, 6987 (1991), with nicotine sulfate as the reference compound, rat cortex as the tissue substrate, and a [^3 H]-NMCI radioligand."}, "[2]": {"experiment": "analgesic activity, Straub-Tail assay (Table 4)", "type": "in vivo", "description": "A wide variety of biological assays have been used to evaluate the ability of a compound to act as an analgesic. Any of these known assays can be used to evaluate the analgesic ability of the compounds disclosed herein. The Straub-tail reaction, which is characteristic of opiate alkaloids, has been used as an assay for opiate agonists and antagonists. The assay is described in detail in Br. J. of Pharmacol. 1969, 36, 225. Another accepted assay for analgesic activity is the hot plate analgesia assay, described in J. of Pharmacol. Exp. Therap. 1953, 107, 385. An assay for the evaluation of the ability of a compound to bind to an opiate receptor is described in Mol. Pharmacol. 1974, 10, 868.\n[…] Daly et al. J. Am. […] Chem. Soc. 1992, 114, 3475; T. Li, et al. Bioorganic and Medicinal Chemistry Letters 1993, 3, 2759."}, "[3]": {"details": "Straub-Tail assay, read-out: ED50"}}, "note": "Where two headings read alike, the source gives them in different places."}
{"smiles": "C[N+]1(C)C2CCC1C(c1ccc(Cl)nc1)C2", "note": "(stereo not drawn)", "values": [{"measurement": "Inhibition %", "setting": "[1]; testing level 10^-7 M", "result": 100, "unit": "%"}, {"measurement": "Inhibition %", "setting": "[1]; testing level 10^-9", "result": 49, "unit": "%"}]}
{"smiles": "N=CN1C2CCC1C(c1ccc(Cl)nc1)C2", "note": "(stereo not drawn)", "values": [{"measurement": "Inhibition %", "setting": "[1]; testing level 10^-9", "result": 49, "unit": "%"}, {"measurement": "Inhibition %", "setting": "[1]; testing level 10^-11", "result": 22, "unit": "%"}]}
{"smiles": "N=CN1C2CCC1C(c1cccnc1)C2", "note": "(stereo not drawn)", "values": [{"measurement": "Inhibition %", "setting": "[1]; testing level 10^-9", "result": 5, "unit": "%"}]}
{"smiles": "COc1ccc([C@@H]2C[C@H]3CC[C@@H]2N3)cn1", "note": "(relative stereo)", "values": [{"measurement": "ED50", "setting": "[2]; [3]", "result": 0.75, "unit": "mg/kg"}]}
{"smiles": "Clc1ccc([C@@H]2C[C@H]3CC[C@@H]2N3CC2CC2)cn1", "note": "(relative stereo)", "values": [{"measurement": "analgesic activity (Straub-Tail), % at 1000 μg/Kg", "setting": "[2]; @ 1000 (μg/Kg)", "result": 100, "unit": "%"}]}
{"smiles": "Clc1ccc([C@@H]2C[C@H]3CC[C@@H]2N3CCc2ccccc2)cn1", "note": "(relative stereo)", "values": [{"measurement": "ED50", "setting": "[2]; [3]", "result": "< 1", "unit": "mg/kg"}]}
{"smiles": "c1cncc([C@@H]2C[C@H]3CC[C@@H]2N3)c1", "note": "(relative stereo)", "values": [{"measurement": "ED50", "setting": "[2]; [3]", "result": 0.25, "unit": "mg/kg"}]}
{"smiles": "Clc1ccc([C@@H]2C[C@H]3C=C[C@@H]2N3)cn1", "note": "(relative stereo)", "values": [{"measurement": "ED50", "setting": "[2]; [3]", "result": "< 1", "unit": "mg/kg"}]}
{"smiles": "Fc1ccc([C@@H]2C[C@H]3CC[C@@H]2N3)cn1", "note": "(relative stereo)", "values": [{"measurement": "ED50", "setting": "[2]; [3]", "result": "~0.05", "unit": "mg/kg"}]}
{"smiles": "ClCCN1[C@@H]2CC[C@H]1[C@H](c1ccc(Cl)nc1)C2", "note": "(relative stereo)", "values": [{"measurement": "ED50", "setting": "[2]", "result": "~0.1", "unit": "mg/kg"}]}
{"smiles": "Clc1ccc([C@@H]2C[C@H]3CC[C@@H]2N3)cn1", "note": "(relative stereo)", "values": [{"measurement": "ED50", "setting": "[2]; Straub-Tail assay", "result": 0.01, "unit": "mg/kg"}]}
{"smiles": "N=CN1[C@@H]2CC[C@H]1[C@H](c1ccc(Cl)nc1)C2", "note": "(relative stereo)", "values": [{"measurement": "analgesic activity (Straub-Tail), % at 100", "setting": "[2]; @ 100", "result": 99, "unit": "%"}]}
{"smiles": "CC(C)(C)Oc1ccc([C@@H]2C[C@H]3CC[C@@H]2N3)cn1", "note": "(relative stereo)", "values": [{"measurement": "ED50", "setting": "[2]; [3]", "result": "~1", "unit": "mg/kg"}]}
{"smiles": "CN1[C@@H]2CC[C@H]1[C@H](c1ccc(Cl)nc1)C2", "note": "(relative stereo) [drawing 33]", "values": [{"measurement": "ED50", "setting": "[2]; [3]", "result": "< 0.01", "unit": "mg/kg"}]}
{"smiles": "CN1C2CCC1C(c1ccc(Cl)nc1)C2", "note": "(stereo not drawn) [R = CH3]", "values": [{"measurement": "Inhibition %", "setting": "[1]; testing level 10^-5 M", "result": 81, "unit": "%"}]}
{"smiles": "Clc1ccc(C2CC3CCC2N3)cn1", "note": "(stereo not drawn) [R = H]", "values": [{"measurement": "Inhibition %", "setting": "[1]; testing level 10^-7 M", "result": 24, "unit": "%"}]}
